PMC6346587, “Glucose 6-phosphate dehydrogenase 6-phosphogluconolactonase: characterization of the Plasmodium vivax enzyme and inhibitor studies” (Malaria Journal, 2019)
Residue numbers refer to the chain shown, from its start. Numbers in names are those of the source. Like-named read-outs stand apart in the source and are kept apart here.

Columns and labels:
PvG6PD = PvG6PD (Plasmodium vivax, UniProt A5K3M1); assay: PvG6PD enzyme inhibition assay (NADPH formation, absorbance 340 nm / fluorescence); type: biochemical; conditions: for IC50 on PvG6PD: ellagic acid and derivatives
Description: The G6PD activity of PfGluPho variants was measured spectrophotometrically as described for the wt enzyme. Kinetic characterization of PvG6PD was performed using the same assay system at an Evolution 300 spectrophotometer (Thermo Scientific, Dreieich, Germany). In brief, the initial reduction of NADP^+ to NADPH by PvG6PD was monitored by measuring the absorbance at 340 nm. The 500 µL reaction mixture contained 200 µM NADP^+ and varying concentrations of PvG6PD in an assay buffer of 100 mM Tris–HCl, pH 8.0, 10 mM MgCl2, and 0.5 mM EDTA at 25 °C. The reaction was started by adding 800 µM G6P. The KM for NADP^+ was determined by titrating NADP^+ from 2 to 400 µM at 800 µM G6P; the KM for G6P was measured accordingly by titrating G6P from 2 to 1200 µM at 200 µM NADP^+. KM values were calculated using GraphPad Prism. Since the KM for G6P was considerably higher than the value measured for PfGluPho [14], a concentration of 800 µM G6P was defined as substrate saturation for PvG6PD.
(§1) To identify potential inhibitors of PvG6PD, compounds with already known effects on PfGluPho (ellagic acid and derivatives, ML304) were tested. Additionally, several compound libraries of the Helmholtz Center for Infection Research, Brunswick, were screened against PfGluPho using the high-throughput-compatible assay systems described in Preuss et al.. […] Based on structure-activity relationship studies, a set of new potential G6PD inhibitors (Fig. 8) was then synthesized and assessed. First, the IC50 values of the compounds were determined, followed by mechanistic characterization of the mode of action. To test for selectivity of the compounds, the IC50 values of the compounds on PvG6PD, PfGluPho, and hG6PD were determined in parallel.
(§2) All measurements were performed in 96-well plates, half area (Greiner Bio-One, Frickenhausen, Germany) using a Tecan Infinite M200 plate reader (Maennedorf, Switzerland). The compounds were dissolved in 100% DMSO and afterwards diluted in assay buffer to the required concentrations. Different compound concentrations were added to a mixture of enzyme and NADP^+ in assay buffer. Concentrations of substrates differed depending on the enzyme; an overview is given in the Additional file 4. The reaction was started by adding G6P, and the increase of NADPH was monitored by measuring the absorbance at 340 nm. To increase the sensitivity of the assay, some measurements were reproduced, detecting the fluorescence of NADPH at ex340/em460. […] A negative control containing no compound was defined as 0% inhibition; a positive control lacking the substrate G6P was defined as 100% inhibition. For evaluations using GraphPad Prism and Microsoft Excel, only a linear increase in absorbance/fluorescence was considered. For the mechanistic characterization of the compounds, either NADP^+ or G6P were titrated at different compound concentrations around the IC50, while keeping the second substrate in saturation. The initial slope was plotted as Michaelis–Menten curves and Lineweaver–Burk plots using GraphPad Prism; KM values and Vmax were calculated with GraphPad Prism software.

PfGluPho [1] = molecular target: T1, PfGluPho (Plasmodium falciparum, UniProt Q8IKU0); assay: PfGluPho G6PD activity inhibition assay; type: biochemical
T1 construct: made in house
T1 sequence (Q8IKU0 1-910): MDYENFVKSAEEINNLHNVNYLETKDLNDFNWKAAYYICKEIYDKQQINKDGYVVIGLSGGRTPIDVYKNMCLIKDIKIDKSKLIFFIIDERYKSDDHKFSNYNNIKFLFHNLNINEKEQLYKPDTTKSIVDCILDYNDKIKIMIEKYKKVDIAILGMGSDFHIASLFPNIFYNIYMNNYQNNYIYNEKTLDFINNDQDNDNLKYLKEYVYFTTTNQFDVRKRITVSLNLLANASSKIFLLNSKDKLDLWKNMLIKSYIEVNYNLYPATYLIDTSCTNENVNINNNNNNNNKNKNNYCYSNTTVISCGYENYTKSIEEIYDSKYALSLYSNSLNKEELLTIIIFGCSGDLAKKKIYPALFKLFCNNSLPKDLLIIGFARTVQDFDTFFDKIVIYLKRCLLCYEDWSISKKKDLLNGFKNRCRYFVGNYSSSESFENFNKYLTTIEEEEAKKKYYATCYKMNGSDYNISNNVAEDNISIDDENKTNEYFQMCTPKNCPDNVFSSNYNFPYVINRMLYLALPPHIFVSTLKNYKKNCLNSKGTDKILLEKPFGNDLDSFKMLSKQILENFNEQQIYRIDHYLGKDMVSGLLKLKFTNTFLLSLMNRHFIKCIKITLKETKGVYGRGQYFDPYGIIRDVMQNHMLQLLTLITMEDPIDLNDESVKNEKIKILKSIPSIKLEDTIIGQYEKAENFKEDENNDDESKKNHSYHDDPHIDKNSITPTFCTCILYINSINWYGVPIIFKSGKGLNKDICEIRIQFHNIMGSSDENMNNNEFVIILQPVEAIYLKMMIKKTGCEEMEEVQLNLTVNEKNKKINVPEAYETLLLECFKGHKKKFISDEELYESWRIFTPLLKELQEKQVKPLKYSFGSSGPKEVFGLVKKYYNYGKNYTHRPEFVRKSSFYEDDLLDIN
Description: as §1, §2

hG6PD [2] = molecular target: T2, hG6PD (Homo sapiens, UniProt P11413); assay: hG6PD enzyme inhibition assay; type: biochemical; conditions: for IC50 on hG6PD relative to plasmodial enzymes (selectivity): compared with PfGluPho and PvG6PD
T2 construct: made in house
Description: as §1, §2

[3] = Stability of compounds in enzyme assay buffer; type: physicochemical; conditions: 100 mM Tris–HCl pH 8.0 assay buffer, DMSO stock
PfGluPho [4] = molecular target: T1, PfGluPho; conditions: ML276; read-out: IC50 against PfGluPho; cited from earlier work
hG6PD [5] = molecular target: T2, hG6PD; conditions: ML276; read-out: IC50 against hG6PD; cited from earlier work
[6] = molecular target: the molecule itself; assay: SEC; size exclusion chromatography of purified PfGluPho mutants under reducing conditions
[7] = mean ± SD, at least two independent determinations, different enzyme batches, read-out: IC50 on PfGluPho
[8] = mean ± SD, only one enzyme batch, read-out: IC50 on hG6PD

T2 sequence (P11413 whole entry): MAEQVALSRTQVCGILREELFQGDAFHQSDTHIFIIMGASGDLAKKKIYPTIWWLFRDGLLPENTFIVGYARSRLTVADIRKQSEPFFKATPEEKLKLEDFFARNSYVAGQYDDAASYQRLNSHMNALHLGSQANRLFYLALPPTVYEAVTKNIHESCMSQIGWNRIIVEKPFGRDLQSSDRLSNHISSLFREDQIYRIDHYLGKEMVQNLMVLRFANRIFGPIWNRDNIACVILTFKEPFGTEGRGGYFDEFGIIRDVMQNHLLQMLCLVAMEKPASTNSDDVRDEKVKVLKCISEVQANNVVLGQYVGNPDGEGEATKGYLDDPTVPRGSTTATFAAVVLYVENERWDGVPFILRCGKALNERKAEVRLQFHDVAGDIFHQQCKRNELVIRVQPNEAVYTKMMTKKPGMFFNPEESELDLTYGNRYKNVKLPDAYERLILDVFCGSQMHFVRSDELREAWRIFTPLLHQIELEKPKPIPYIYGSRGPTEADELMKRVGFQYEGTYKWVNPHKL
PvG6PD, sequence (A5K3M1 entry or part of it): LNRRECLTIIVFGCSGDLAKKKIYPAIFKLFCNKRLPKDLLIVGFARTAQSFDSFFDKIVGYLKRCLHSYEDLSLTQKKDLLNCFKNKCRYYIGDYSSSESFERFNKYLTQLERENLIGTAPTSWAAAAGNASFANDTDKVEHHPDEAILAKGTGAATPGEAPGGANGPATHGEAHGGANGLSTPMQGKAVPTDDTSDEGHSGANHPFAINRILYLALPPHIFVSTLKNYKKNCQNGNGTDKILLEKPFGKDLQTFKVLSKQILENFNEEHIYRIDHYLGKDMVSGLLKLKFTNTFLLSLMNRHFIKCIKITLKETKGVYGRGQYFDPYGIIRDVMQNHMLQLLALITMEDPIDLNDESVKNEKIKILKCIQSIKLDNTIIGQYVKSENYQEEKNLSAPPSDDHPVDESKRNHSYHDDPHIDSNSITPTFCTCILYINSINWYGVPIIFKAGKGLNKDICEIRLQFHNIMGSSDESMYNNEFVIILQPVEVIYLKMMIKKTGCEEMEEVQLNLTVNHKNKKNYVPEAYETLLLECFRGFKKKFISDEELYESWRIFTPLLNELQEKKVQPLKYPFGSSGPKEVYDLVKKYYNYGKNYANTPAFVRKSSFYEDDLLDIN

O=CC(Cl)=C(I)I [13 (vz0288)]
IC50 (PvG6PD; mean ± SD, at least two independent determinations, different enzyme batches, read-out: IC50 on PvG6PD): 23.3 ± 7.8 µM
IC50 (PfGluPho [1]; [7]): 29.6 ± 23.2 µM
IC50 (hG6PD [2]; [8]): > 100 µM

N#CC(Br)c1ncccn1 (stereo not drawn) [2 (vz1731)]
IC50 (PvG6PD): 2.1 ± 0.1 µM
IC50 (PfGluPho [1]; [7]): 11.7 ± 9.9 µM
IC50 (hG6PD [2]; [8]): 91.7 ± 35 µM
Stability in the assay buffer / of dissolved compound [3]: only active when the powder was freshly dissolved

O=C(C(=C1N(Cc2ccc(Cl)nc2)CCN1Cc1ccc(Cl)nc1)[N+](=O)[O-])C(Cl)(Cl)[N+](=O)[O-] [18 (vz0909)]
IC50 (PvG6PD): 9.1 ± 2.8 µM
IC50 (PfGluPho [1]): 23.6 ± 14.3 µM
IC50 (hG6PD [2]): 26 ± 1.8 µM
Stability in the assay buffer / of dissolved compound [3]: less stable

O=c1oc2c(O)c(O)c(O)c3c(=O)oc4c(O)c(O)cc1c4c23 [FEA, flavellagic acid]
IC50 (PvG6PD): 0.0372 ± 0.0058 µM
IC50 on PvG6PD (PvG6PD): lower nanomolar range

O=C(/C(=C1\N(Cc2ccc(Cl)nc2)CCN1Cc1cnc(Cl)s1)[N+](=O)[O-])C(Cl)(Cl)[N+](=O)[O-] [19 (vz0914)]
IC50 (PvG6PD): 5.6 ± 0.6 µM
IC50 (PfGluPho [1]): 8.4 ± 8.4 µM
IC50 (hG6PD [2]): 29.6 ± 5 µM
Stability in the assay buffer / of dissolved compound [3]: less stable

O=c1oc2c(O)c(O)c(O)c3c(=O)oc4c(O)c(O)c(O)c1c4c23 [CEA, coruleoellagic acid]
IC50 (PvG6PD): 0.0444 ± 0.0019 µM
IC50 on PvG6PD (PvG6PD): lower nanomolar range

O=[N+]([O-])C(C(Cl)=C(Cl)Cl)=C1N(c2ccccc2)CCN1c1ccccc1 [20 (vz0005)]
IC50 (PvG6PD): > 100 µM
IC50 (PfGluPho [1]; [7]): > 100 µM
IC50 (hG6PD [2]; [8]): > 100 µM

ClC=C(n1nnc2ccccc21)n1nnc2ccccc21 [8 (vz0882)]
IC50 (PvG6PD): 12.8 ± 7.8 µM
IC50 (PfGluPho [1]; [7]): 18.1 ± 10.4 µM
Stability in the assay buffer / of dissolved compound [3]: less stable

CCN1CCC[C@@H]1CNC(=O)c1ccc2c(c1)NC(=O)/C(=C/c1ccccc1F)S2 [ML276, (R, Z)-N-((1-ethylpyrrolidin-2-yl)methyl)-2-(2-fluorobenzylidene)-3-oxo-3,4-dihydro-2H-benzo[b][1,4]thiazine-6-carboxamide]
IC50 (PfGluPho [4]): 0.89 µM
IC50 (hG6PD [5]): > 80 µM

O=C(O)C(Cl)(C=C(Cl)Cl)[N+](=O)[O-] (stereo not drawn) [10 (vz1204)]
IC50 (PvG6PD): 23.5 ± 3.7 µM
IC50 (hG6PD [2]; [8]): > 100 µM

N#CC(Br)c1ncccc1Cl (stereo not drawn) [4 (vz1732)]
IC50 (PvG6PD): 0.2 µM
Type of inhibition of PfGluPho against G6P and NADP+ (PfGluPho [1]; both substrate G6P and coenzyme NADP+): non-competitively
IC50 (PfGluPho [1]; [7]): 0.9 ± 0.2 µM
IC50 on hG6PD relative to plasmodial enzymes (selectivity) (hG6PD [2]): one to two orders of magnitude higher
IC50 (hG6PD [2]; [8]): 34.7 ± 21 µM
Stability in the assay buffer / of dissolved compound [3]: only active when the powder was freshly dissolved

C=C[S+]([O-])c1sc(Cl)c(N2CCN(c3c(Cl)sc([S+]([O-])C=C)c3[N+](=O)[O-])CC2)c1[N+](=O)[O-] (stereo not drawn) [21 (vz0527)]
IC50 (PvG6PD): 0.2 ± 0.1 µM
IC50 (PfGluPho [1]): 1.7 ± 0.3 µM
IC50 (hG6PD [2]): 8.3 ± 2.7 µM
IC50 on hG6PD relative to plasmodial enzymes (selectivity) (hG6PD [2]): one to two orders of magnitude higher
Stability in the assay buffer / of dissolved compound [3]: only active when the powder was freshly dissolved

B1: PfGluPho S315Y (enzyme)
chain: T1 sequence (Q8IKU0 1-910) with S315Y
notes: source: E. coli, purified (size exclusion chromatography under reducing conditions); produced as described previously [14]
stoichiometry N [6]: 4

B2: PfGluPho S899E (phosphomimetic mutant) (enzyme)
chain: T1 sequence (Q8IKU0 1-910) with S899E
notes: as for B1
stoichiometry N [6]: 4

B3: PfGluPho L395F (enzyme)
chain: T1 sequence (Q8IKU0 1-910) with L395F
notes: as for B1
stoichiometry N [6]: 4

B4: PfGluPho F507L (enzyme)
chain: T1 sequence (Q8IKU0 1-910) with F507L
notes: as for B1
stoichiometry N [6]: 4

B5: PfGluPho S900E (phosphomimetic mutant) (enzyme)
chain: T1 sequence (Q8IKU0 1-910) with S900E
notes: as for B1
stoichiometry N [6]: 4
